Where a name gives a salt, the structure may show the parent alone. Read-outs that look alike come from different tables or passages of the source. Where no end group is shown, it is not given here.
Experiments:
Format in all cases: cell-based, human
[1] = system: YAP/TAZ; assay: YAP/TAZ nuclear localization in IMR-90 and other mesenchymal cells (cardiac, dermal fibroblasts, hepatic stellate cells); conditions: for YAP/TAZ nuclear localization in confluent fibroblasts, ligand alone: ET-1 100 nM, LPA 10 μM, 5-HT 1 μM, 2 hours (FIG. 2c); for YAP/TAZ nuclear localization: fibroblasts on stiff matrix (plastic), IMR-90 cells treated 2 hours (FIG. 2a)
Experimental: FIGS. 2A-2E Dopamine Receptor D1 agonism blocks YAP/TAZ nuclear localization. 2a. Selective agonists of dopamine receptor D1 with varying efficacy inhibit YAP/TAZ nuclear localization; this effect can be overcome by treatment with a DRD1 receptor antagonist (SCH 39166, 3 μM), (Dihydrexidine, 10 μM). IMR-90 cells treated 2 hours prior to fixation. N=4 (****p<0.0001 vs. 0.1% DMSO vehicle control). Scale bar represents 100 μm. 2b. Consistent with DRD1 expression, DHX inhibits YAP/TAZ only in fibroblasts (IPF-FBs) but not in epithelial (NHEpCs) or endothelial (NHMVECs) cells. N=4 (****p<0.0001 vs. 0.1% DMSO vehicle control) 2c. YAP/TAZ localization is induced through multiple ligands which stimulate receptors coupled to Galphαi/q/12, endothelin 1 (ET-1: 100 nM), lysophosphatidic acid (LPA: 10 μM), and serotonin (5-HT: 1 μM). In each case DHX treatment (10 μM) can reverse this effect on YAP/TAZ. IMR-90 cells plated densely onto plastic cell culture plates for 24 hours in media containing 0.1% FBS, treated for 2 hours prior to fixation. N=4 (****p<0.0001 vs. 0.1% DMSO vehicle control), (++++p<0.0001 vs. the respective stimulated agonist ET-1, LPA, or 5-HT). Scale bar represents 100 μm. 2d. cAMP measured in IPF patient-derived fibroblasts treated for 20 minutes with DHX (10 μM)+/−SCH 39166 (3 μM). N=3 (**p<0.01 vs. 0.1% DMSO vehicle control). 2e. Phosphorylation of YAP by Rho-kinase inhibitor Y27632 (20 μM), direct cAMP stimulator Forskolin (10 μM), or DHX (10 μM). IMR-90 cells cultured for 24 hours in media containing 0.1% FBS, treated 2 hours prior to fixation. N=3 (***p<0.001 vs. 0.1% DMSO vehicle control).
FIGS. 6A-6C DHX inhibits YAP/TAZ localization in fibroblasts from multiple tissues. 6a. Mesenchymal cells derived from lung (IMR-90 and IPF-FBs) hepatic stellate cells (HSC), human adult cardiac fibroblasts, (HACF) and human dermal fibroblasts (HDF) were plated densely (Confluent) or sparsely (Control and all remaining conditions) onto plastic cell culture plates for 24 hours in media containing 0.1% FBS, treated for 2 hours with Rho kinase inhibitor Y27632, adenylate cyclase activator forskolin and DHX. N=4, Cells that were positive for nuclear YAP/TAZ were quantified by automated image analysis. 6b. Time course for DHX inhibition of YAP/TAZ nuclear localization. IMR-90 cells, N=3 (***p<0.001 vs. 0.1% DMSO vehicle control). 6c. […] N=3.
(§1) ImmunofluorescenceMicroscopy: Cells were plated into 96 well plates (Corning 3603) in their specific growth media and allowed to attach (8 hours). Media was then exchanged for the indicated conditions for each experiment. Cells were fixed in 3.7% formalin (Sigma-Aldrich), permeabilized in 0.25% Triton X-100 (Sigma-Aldrich) and then blocked with 1% BSA for 1 h. Cells or tissue sections were incubated overnight with mouse monoclonal antibody against αSMA (Sigma-Aldrich F3777), and/or a rabbit monoclonal antibody against YAP/TAZ (Cell Signaling D24E4) diluted 1:200 in PBS with 1% BSA. Cells were then washed and exposed to flourescence-conjugated secondary antibodies (Invitrogen) diluted 1:1000 and DAPI (Thermo Fisher Scientific). Images were taken with a Cytation5 (BioTek) microscope. For scoring αSMA positive cells (FIG. 3b), an observer blinded to the treatment conditions counted αSMA-positive cells using a visual threshold for bright fibrous staining; a minimum of 200 cells was counted for each condition. YAP/TAZ localization was quantified (FIG. 2, 6, 8) using Gen5 (Biotek) software. Images were taken at 4× magnification of both DAPI and YAP/TAZ staining. […] Quantification of double positive (YAP/TAZ and αSMA) cells from lung tissue sections (FIG. 4d) was performed similarly; however separate thresholds were established for both YAP/TAZ and αSMA. A minimum of 4000 cells was quantified for each mouse.

[2] = system: cAMP; assay: cAMP Assay (cAMP-Glo) in lung fibroblasts; conditions: IMR-90 lung fibroblasts (FIG. 31F-31H)
Experimental: cAMP Assay: IPF patient derived fibroblasts were plated in EMEM containing 10% FBS overnight. […] 20 minutes prior to cell lysis media was removed and cells were treated with “induction buffer” containing nonselective phosphodiesterase inhibitors and the indicated concentration of compound(s). Luminescence was measured on a Flexstation 3 (Molecular Devices) plate reader.

[3] = system: YAP/TAZ; assay: YAP/TAZ nuclear localization (immunofluorescence, automated imaging) in IPF patient-derived lung fibroblasts; conditions: 10 μM, treated 2 hours prior to fixation; for Nuclear localization (% of total cells) IPF-1: patient sample IPF-1; for Nuclear localization (% of total cells) IPF-2: patient sample IPF-2; for Nuclear localization (% of total cells) IPF-3: patient sample IPF-3; for Nuclear localization (% of total cells) IPF-4: patient sample IPF-4
Experimental: 27A. […] IPF patient-derived lung fibroblasts cells treated 2 hours prior to fixation with diverse dopaminergic agonists (10 μM). N=4 different patient samples. % nuclear localization of YAP/TAZ was determined using automated imaging software. Scale bar represents 100 μm. 27C. cAMP measured in IPF patient-derived fibroblasts treated for 20 minutes with DHX. N=3. 27E.
as §1

[4] = system: αSMA; assay: αSMA intensity (fibroblast activation) in IPF patient-derived lung fibroblasts + TGFβ; conditions: 1 μM + TGFβ, treated for 72 hours; for activity at 1 µM: Homo sapiens, SMA
Experimental: as §1

[5] = patient sample IPF-1, read-out: αSMA intensity (% of DMSO control) IPF-1
[6] = patient sample IPF-2, read-out: αSMA intensity (% of DMSO control) IPF-2
[7] = patient sample IPF-3, read-out: αSMA intensity (% of DMSO control) IPF-3
[8] = patient sample IPF-4, read-out: αSMA intensity (% of DMSO control) IPF-4

Compound	Nuclear localization (% of total cells) IPF-1 [3]	Nuclear localization (% of total cells) IPF-2 [3]	Nuclear localization (% of total cells) IPF-3 [3]	Nuclear localization (% of total cells) IPF-4 [3]	αSMA intensity (% of DMSO control) IPF-1 ([4]; patient sample IPF-1)	αSMA intensity (% of DMSO control) IPF-2 ([4]; patient sample IPF-2)	αSMA intensity (% of DMSO control) IPF-3 ([4]; patient sample IPF-3)	αSMA intensity (% of DMSO control) IPF-4 ([4]; patient sample IPF-4)	also measured
NCCc1c[nH]c2ccc(O)cc12 [serotonin]	–	–	–	–	–	–	–	–	YAP/TAZ nuclear localization in confluent fibroblasts, ligand alone [1]: enhance YAP/TAZ nuclear localization
CN1CCc2ccccc2Cc2[nH]c3ccccc3c2CC1 [LE-300]	–	–	–	–	–	–	–	–	antagonism of DHX's elevation of cAMP, inhibition of YAP/TAZ nuclear localization and of YAP/TAZ target genes [2]: block DHX's elevation of cAMP
CCCCC[C@H](O)/C=C/[C@H]1[C@H](O)CC(=O)[C@@H]1C/C=C\CCCC(=O)O [PGE2, Prostaglandin E2]	–	–	–	–	–	–	–	–	potency of inhibition of YAP/TAZ nuclear localization, normal lung fibroblasts vs IPF-derived ([1]; FIG. 6c): reduced potency
C=CCN1CCc2nc(N)sc2CC1.Cl.Cl [B-HT 920•2HCl]	75.68 % of total cells	46.9 % of total cells	64.79 % of total cells	76.24 % of total cells	74.98 % of DMSO control	58.97 % of DMSO control	70.12 % of DMSO control	54.23 % of DMSO control	–
(R)-(−)-Apomorphine [(R)-(−)-Apomorphine•HCl]	29.21 % of total cells	31.97 % of total cells	27.47 % of total cells	17.86 % of total cells	7.067 % of DMSO control	1.173 % of DMSO control	0.9618 % of DMSO control	33.67 % of DMSO control	–
COc1ccc2c(c1O)-c1cc(O)cc3c1[C@@H](C2)N(C)CC3.Cl [R(−)-2,11-dihydroxy-10-methoxyapomorphine]	85.18 % of total cells	74.67 % of total cells	80.73 % of total cells	80.45 % of total cells	91.84 % of DMSO control	92.8 % of DMSO control	81.85 % of DMSO control	85.61 % of DMSO control	–
lysophosphatidic acid	–	–	–	–	–	–	–	–	YAP/TAZ nuclear localization in confluent fibroblasts, ligand alone [1]: enhance YAP/TAZ nuclear localization
Oc1cc2c(c(Cl)c1O)CCNCC2c1ccccc1 (stereo not drawn) [SKF-81297]	–	–	–	–	–	–	–	–	YAP/TAZ nuclear localization [1]: reduced nuclear localization of YAP/TAZ
CCCN1CCC[C@@H]2Cc3nc(N)ncc3C[C@H]21.Cl.Cl [LY-163,502•2HCl]	73.37 % of total cells	60.97 % of total cells	59.43 % of total cells	66.49 % of total cells	88.99 % of DMSO control	72.86 % of DMSO control	75.3 % of DMSO control	86.7894 % of DMSO control	–
C=CCN1CCc2c(cc(O)c(O)c2Cl)C(c2ccccc2)C1 (racemic) [(±)-SKF-82958•HBr]	29.15 % of total cells	38 % of total cells	38 % of total cells	12.29 % of total cells	–	–	–	–	activity at 1 µM [4, 5]: 11.8%; activity at 1 µM [4, 6]: 4.97%; activity at 1 µM [4, 7]: 2.43%; activity at 1 µM [4, 8]: 9.33%
Br.C=CCN1CCc2c(cc(O)c(O)c2Br)[C@@H](c2ccccc2)C1 [R(+)-6-BROMO-APB•HBr, R(+)-6-bromo-APB]	28.37 % of total cells	38 % of total cells	36 % of total cells	25.65 % of total cells	11.25 % of DMSO control	2.507 % of DMSO control	0.8506 % of DMSO control	22.82 % of DMSO control	–
R(−)-2,10,11-Trihydroxyaporphine [R(−)-2,10,11-Trihydroxyaporphine•HBr]	13.71 % of total cells	22.15 % of total cells	24.15 % of total cells	17.75 % of total cells	2.888 % of DMSO control	1.698 % of DMSO control	7.646 % of DMSO control	15.9942 % of DMSO control	–
Oc1ccc(C2CNCCc3c2cc(O)c(O)c3Cl)cc1 (stereo not drawn) [Fenoldopam•HCl, Fenoldopam]	–	–	–	–	–	–	–	–	activity at 1 µM [4, 5]: 77.3%; activity at 1 µM [4, 6]: 45.3%; activity at 1 µM [4, 7]: 69.4%; activity at 1 µM [4, 8]: 63.4%; YAP/TAZ nuclear localization [1]: reduced nuclear localization of YAP/TAZ
CCCN(CCc1ccccc1)C1CCc2c(O)cccc2C1.Cl (racemic) [(±)-2-(N-phenylethyl-N-propyl)amino-5-hydroxytetralin]	68.85 % of total cells	60.86 % of total cells	68 % of total cells	56.552 % of total cells	65.43 % of DMSO control	52.77 % of DMSO control	60.4844 % of DMSO control	51.1 % of DMSO control	–
endothelin-1: GPCR ligand implicated in promotion of fibrosis (CSCSSLMDKECVYFCHLDIIW; ends and bridges not checked; cysteine pairing not given here; UniProt P05305 53-73, looked up)	–	–	–	–	–	–	–	–	YAP/TAZ nuclear localization in confluent fibroblasts, ligand alone [1]: enhance YAP/TAZ nuclear localization
